Results on 21 compounds are retold here after ChEMBL document CHEMBL1150552, “Silyl ethers of cycloheptene, novel proton pump inhibitors obtained during the total synthesis of the scopadulcic acids” (Bioorg Med Chem Lett, 1995).

Molecules are shown by their SMILES.

Data set [1] concerns the target T1, Potassium-transporting ATPase (Sus scrofa) (UniProt P18434+P19156). The data set can be described thus: Inhibition of procine gastric H+,K+-ATPase at 100 uM in vitro. Format: tissue-based. The following applies: Stomach.
Data set [2] addresses T1, Potassium-transporting ATPase (Sus scrofa). Description: Inhibition of procine gastric H+,K+-ATPase at 10 uM in vitro. It counts as tissue-based. Particulars: Stomach.
For data set [3] the target is unchanged. Description: Inhibition of procine gastric H+,K+-ATPase at 1 uM in vitro. It counts as tissue-based. Particulars: Stomach.
The nature of data set [4]: Michaelis-Menten constant of the compound. Particulars: pig. It counts as ADME, Sus scrofa.
The nature of data set [5]: Vmax value was measured at 10 uM concentration of silyl ether. Particulars: pig. It counts as ADME, Sus scrofa.
Data set [6] is described as follows: Vmax value was measured at 5 uM concentration of silyl ether. It counts as ADME, Sus scrofa. Particulars: pig.
In data set [7] the target is Potassium-transporting ATPase (Sus scrofa, UniProt P19156). Description: Tested for inhibitory activity against gastric H+, K+-ATPase. Format: tissue-based, Stomach.
Chain of Potassium-transporting ATPase (P18434 whole entry): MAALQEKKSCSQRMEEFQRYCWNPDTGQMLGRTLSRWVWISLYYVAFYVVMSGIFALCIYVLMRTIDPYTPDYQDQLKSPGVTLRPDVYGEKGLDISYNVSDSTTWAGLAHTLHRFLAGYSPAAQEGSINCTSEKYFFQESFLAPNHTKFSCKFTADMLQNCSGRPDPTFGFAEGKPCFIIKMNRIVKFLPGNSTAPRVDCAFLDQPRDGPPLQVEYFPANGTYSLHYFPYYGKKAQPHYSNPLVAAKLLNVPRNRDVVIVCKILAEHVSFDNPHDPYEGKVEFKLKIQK
Chain of Potassium-transporting ATPase (P19156 whole entry): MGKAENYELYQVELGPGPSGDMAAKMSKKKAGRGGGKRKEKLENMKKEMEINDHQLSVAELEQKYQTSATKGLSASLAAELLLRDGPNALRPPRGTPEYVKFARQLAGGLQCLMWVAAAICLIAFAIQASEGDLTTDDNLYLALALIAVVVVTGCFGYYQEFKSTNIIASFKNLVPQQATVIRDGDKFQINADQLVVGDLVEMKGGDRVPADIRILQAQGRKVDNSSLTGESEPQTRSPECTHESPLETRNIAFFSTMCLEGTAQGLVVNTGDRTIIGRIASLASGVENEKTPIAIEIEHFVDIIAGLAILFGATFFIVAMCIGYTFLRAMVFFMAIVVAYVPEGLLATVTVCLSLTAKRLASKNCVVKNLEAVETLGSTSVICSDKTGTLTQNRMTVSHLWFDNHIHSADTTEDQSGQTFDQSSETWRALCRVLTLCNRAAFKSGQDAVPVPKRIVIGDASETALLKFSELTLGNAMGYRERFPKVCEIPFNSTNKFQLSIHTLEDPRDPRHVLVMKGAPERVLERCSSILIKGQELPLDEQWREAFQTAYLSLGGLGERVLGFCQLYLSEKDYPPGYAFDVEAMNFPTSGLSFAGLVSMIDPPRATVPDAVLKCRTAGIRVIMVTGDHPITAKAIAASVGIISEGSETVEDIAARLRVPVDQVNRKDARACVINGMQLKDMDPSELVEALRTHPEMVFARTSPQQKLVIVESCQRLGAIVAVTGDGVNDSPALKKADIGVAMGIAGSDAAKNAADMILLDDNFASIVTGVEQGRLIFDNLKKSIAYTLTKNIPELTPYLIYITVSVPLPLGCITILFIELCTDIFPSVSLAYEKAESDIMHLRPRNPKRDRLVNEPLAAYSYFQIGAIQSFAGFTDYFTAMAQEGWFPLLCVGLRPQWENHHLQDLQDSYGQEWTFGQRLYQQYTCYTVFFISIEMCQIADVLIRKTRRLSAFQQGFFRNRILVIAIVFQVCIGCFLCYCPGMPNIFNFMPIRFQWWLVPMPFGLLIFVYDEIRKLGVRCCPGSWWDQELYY
Data set [8] is described as follows: Vmax value was measured at 0 uM concentration of silyl ether. It counts as ADME, Sus scrofa. Particulars: pig.

What is called inhibition is the change of the read-out against control, counted positive when it falls. For the compound `COC(=O)[C@]1(C)CCC[C@@]2(C)[C@H]1[C@H](OC(=O)c1ccccc1)C[C@H]1CC(=O)[C@@]3(C)CC[C@]12C3`, the inhibition in data set [1] was 81%; in data set [2], 74%; in data set [3], 36%.

For `CC1=CCC(CC(O)c2ccccc2I)C(=O)CC1` (configuration not stated), the inhibition in data set [1] was 72%; in data set [2] it was 19%; in data set [3], 10%.

In the case of `C=C[C@@]1(C)C[C@@H]1C(=O)CCC(O[Si](C)(C)C(C)(C)C)c1ccccc1I` (some centres not stated), the results for the inhibition in data set [1], in data set [2] and in data set [3] were 80%, 50% and 29%, respectively.

Turning to `C=C1CCC(C)=CC[C@@H]1C[C@H](/C=C(\I)CCCC1OCCO1)O[Si](C)(C)C(C)(C)C`, the inhibition in data set [1] came out at 93%; in data set [2] it was 63%; in data set [3], 14%.

Consider `C=C[C@@]1(C)C[C@@H]1C(=O)CCC(O)c1ccccc1I` (some centres not stated), for which the inhibition in data set [1] worked out at 63%; in data set [2] it was 35%; in data set [3], 8%.

As a reminder, the Km is the substrate concentration at which the rate is half of its maximum. As usually defined, the Vmax is the top rate of the reaction or transport when substrate is in excess. What is called IC50 is the point on the concentration scale where inhibition reaches its midpoint. A low value points to greater potency in that assay. Turning to `CC1=CCC(CC(O[Si](C)(C)C(C)(C)C)c2ccccc2I)C(=O)CC1` (configuration not stated), the Km in data set [4] was found to be 460 µM. Further, the Vmax in data set [5] is 31 µM/h/mg; in data set [6], 63 µM/h/mg; in data set [8], 125 µM/h/mg. The concentration for half-maximal inhibition (IC50) in data set [7] was 8.2 µM. The inhibition in data set [1] amounted to 95%; in data set [2] it was 74%; in data set [3], 30%.

Turning to `COCO[C@H]1C[C@@H]2C[C@@H](O[Si](C)(C)C)C3[C@](C#N)(COCc4ccccc4)CCC[C@]3(C)[C@]23CC[C@@]1(C)C3` (some centres not stated), the inhibition in data set [1] worked out at 52%; in data set [2], 44%; in data set [3], 25%.

On to `CO[C@H]1C[C@@H]2CC(=O)c3ccccc3[C@]23CC[C@@]1(C)C3`, for which the inhibition worked out at 42% in data set [1] and 17% in data set [2].

In the case of `C[C@]12C=CC3=CC(=O)c4ccccc4[C@@]3(CC1)C2`, the inhibition in data set [1] was 61%; in data set [2] it was 9%; in data set [3] it was 16%.

For the compound `C[C@]12CC[C@]3(C1)C(=CC(=O)c1ccccc13)C[C@@H]2O`, the inhibition in data set [1] was found to be 17%; in data set [2], 17%; in data set [3] it was 8%.

As to `COCO[C@H]1C[C@@H]2CC(=O)C3[C@@H](C#N)CCC[C@]3(C)[C@]23CC[C@@]1(C)C3` (some centres not stated), the inhibition in data set [1] worked out at 17%; in data set [2], 7%; in data set [3] it was 5%.

Turning to `C[C@]12CC[C@@]3(C1)c1ccccc1C(=O)C[C@H]3C[C@@H]2O`, the inhibition worked out at 0% in data set [1], 19% in data set [2] and 18% in data set [3].

For the compound `C=C1CCC(C)=CCC1CC(O[Si](C)(C)C(C)(C)C)c1ccccc1I` (configuration not stated), the inhibition in data set [1] turned out to be 98%; in data set [2], 63%; in data set [3], 15%.

Turning to `COCO[C@H]1C[C@@H]2C[C@@H](O[Si](C)(C)C)C3[C@@H](C#N)CCC[C@]3(C)[C@]23CC[C@@]1(C)C3` (some centres not stated), the inhibition in data set [1] turned out to be 67%; in data set [2] it was 32%; in data set [3] it was 4%.

Take `C[C@]12CCC3=CC(=O)c4ccccc4[C@@]3(CC1)C2`: the inhibition in data set [1] was 52%; in data set [2], 9%; in data set [3], -2%.

With `CO[C@H]1C[C@@H]2CC(=O)C3=C(CCC[C@@]3(C)CO)[C@]23CC[C@@]1(C)C3`, the inhibition in data set [1] came to 8%; in data set [2] it was 14%; in data set [3], 9%.

Consider `C=C1CCC(C)=CC[C@@H]1C[C@@H](O)C#CCCCC1OCCO1`, for which the figures for the inhibition in data set [1], in data set [2] and in data set [3] were 20%, 13% and 8%, respectively.

Consider `CO[C@H]1C[C@@H]2C[C@@H]3OC(=O)c4cccc(c43)[C@]23CC[C@@]1(C)C3`, for which the inhibition was determined as 55% in data set [1], 16% in data set [2] and 1% in data set [3].

Consider `CC1=CCC(CCO)C(=O)CC1` (configuration not stated), for which the inhibition in data set [1] amounted to 34%; in data set [2] it was 9%; in data set [3], 11%.

Turning to `C[C@]12CC[C@]3(C1)[C@H](CC2=O)C[C@@H](OC(=O)c1ccccc1)[C@H]1[C@](C)(C(=O)O)CCC[C@@]13C`, the inhibition in data set [1] is 62%; in data set [2], 21%; in data set [3] it was 7%.

Turning to `CO[C@H]1C[C@@H]2C[C@H](O)c3c(C(=O)O)cccc3[C@]23CC[C@@]1(C)C3`, the inhibition in data set [1] was 21%; in data set [2] it was 0%; in data set [3] it was -6%.
